Laboratory results as given in EPA's ToxValDB 9.5 (doi:10.2903/j.efsa.2016.4491).

Legend:
Poecilus cupreus = assay: LR50; higher = less toxic; conditions: not reported; mortality
Daphnia magna = conditions: chronic/long-term; duration: 21 days; reproduction
Bibionidae = conditions: chronic/long-term; duration: 28 days
Canidae = conditions: chronic, oral, Dog Other, clinical signs

CC[C@H](C)[C@H]1O[C@]2(C=C[C@@H]1C)C[C@@H]1C[C@@H](C/C=C(\C)[C@@H](O[C@H]3C[C@H](OC)[C@@H](O[C@H]4C[C@H](OC)[C@@H](O)[C@H](C)O4)[C@H](C)O3)[C@@H](C)/C=C/C=C3\CO[C@@H]4[C@H](O)C(C)=C[C@@H](C(=O)O1)[C@]34O)O2.CO[C@H]1C[C@H](O[C@H]2[C@H](C)O[C@@H](O[C@@H]3/C(C)=C/C[C@@H]4C[C@@H](C[C@]5(C=C[C@H](C)[C@@H](C(C)C)O5)O4)OC(=O)[C@@H]4C=C(C)[C@@H](O)[C@H]5OC/C(=C\C=C\[C@@H]3C)[C@]54O)C[C@@H]2OC)O[C@@H](C)[C@@H]1O [Abamectin]
LR50 (Poecilus cupreus): > 58 g/ha | NOEC (Daphnia magna): 1e-05 mg/L | LD50 (Anas platyrhynchos; acute, oral, unspecified, mortality): ≤ 77 mg/kg-day | NOEC (Anas platyrhynchos; chronic/long-term, M): 1.33 mg/kg-day | LC50 (Anas platyrhynchos; short-term, oral, feed, mortality): 48.6 mg/kg-day | NOEC (Bibionidae): 8.1e-05 mg/L | NOAEL (Rattus norvegicus; acute, clinical signs): 0.5 mg/kg-day | LD50 (Rattus norvegicus; acute, mortality): 8.7 mg/kg | NOEC (Rattus norvegicus; chronic, oral): 0.12 mg/kg-day | LD50 (Oncorhynchus mykiss; acute, duration: 96 hours, mortality): 0.0036 mg/L | NOEC (Oncorhynchus mykiss; chronic/long-term, duration: 28 days): 0.00052 mg/L | LC50 (Tagia sp.; acute, duration: 14 days, mortality): 33 mg/kg | NOEC (Tagia sp.; not reported): ≥ 0.72 mg/kg | NOAEL (Canidae; duration: 18 weeks): 0.25 mg/kg-day | NOAEL (Canidae; duration: 53 weeks): 0.25 mg/kg-day
